One compound from ChEMBL document CHEMBL5505970 (J Med Chem, 2024) can be followed below.

The target in data set [1] is Serine/threonine-protein kinase ATR (Homo sapiens, UniProt Q13535). As to the kind of experiment: Inhibition of ATR in human HeLa S3 cells assessed as decrease in CHK1 phosphorylation at Ser345 residue pretreated for 20 mins followed by gemcitabine stimulation for 3.5 to 4 hrs by AlphaScreen SurFire assay. The format is cell-based.
The nature of data set [2]: Toxicity in BALB/c mouse assessed as decrease in proportion of reticulocytes in bone marrow at 10 mg/kg, po qd for 3 days. The format is organism-based. The following applies: in vivo, 72 h, time 3 day.
A short description of data set [3]: Clearance in mouse hepatocytes at 1 uM measured per million cells by ESI/LC-MS/MS analysis. As to conditions: read-out: CLH. The format is ADME, cell-based, Hepatocyte.
Data set [4] in a line: Toxicity in NOD-SCID mouse xenografted with human Granta-519 cells assessed as early stage erythroblasts at 30 mg/kg, po qd for 3 days and measured at 2 days after treatment discontinuation by flow cytometry. Type of data set: organism-based. As to conditions: in vivo, 72 h, time 3 day.
Data set [5] is described as follows: Toxicity in NOD-SCID mouse xenografted with human Granta-519 cells assessed as early stage erythroblasts in bone marrow at 10 mg/kg, po qd for 3 days co-administered with PARP inhibitor, niraparib and measured at 4 days after treatment cessation by flow cytometry. Type of data set: organism-based. The following applies: in vivo, 72 h, time 3 day. In general terms: In xenograft studies the graft and the host belong to different species.

Data set [6] is described as follows: Toxicity in NOD-SCID mouse xenografted with human Granta-519 cells assessed as red blood cells count at 5 mg/kg, po qd for 3 days and 4 days off intermittent dosing for 3 cycles co-administered with PARP inhibitor, niraparib from day 3 to day 6 in each cycle and measured on day 21. The format is organism-based. The following applies: in vivo, 504 h, time 21 day.

Sequence of Serine/threonine-protein kinase ATR (Q13535 whole entry): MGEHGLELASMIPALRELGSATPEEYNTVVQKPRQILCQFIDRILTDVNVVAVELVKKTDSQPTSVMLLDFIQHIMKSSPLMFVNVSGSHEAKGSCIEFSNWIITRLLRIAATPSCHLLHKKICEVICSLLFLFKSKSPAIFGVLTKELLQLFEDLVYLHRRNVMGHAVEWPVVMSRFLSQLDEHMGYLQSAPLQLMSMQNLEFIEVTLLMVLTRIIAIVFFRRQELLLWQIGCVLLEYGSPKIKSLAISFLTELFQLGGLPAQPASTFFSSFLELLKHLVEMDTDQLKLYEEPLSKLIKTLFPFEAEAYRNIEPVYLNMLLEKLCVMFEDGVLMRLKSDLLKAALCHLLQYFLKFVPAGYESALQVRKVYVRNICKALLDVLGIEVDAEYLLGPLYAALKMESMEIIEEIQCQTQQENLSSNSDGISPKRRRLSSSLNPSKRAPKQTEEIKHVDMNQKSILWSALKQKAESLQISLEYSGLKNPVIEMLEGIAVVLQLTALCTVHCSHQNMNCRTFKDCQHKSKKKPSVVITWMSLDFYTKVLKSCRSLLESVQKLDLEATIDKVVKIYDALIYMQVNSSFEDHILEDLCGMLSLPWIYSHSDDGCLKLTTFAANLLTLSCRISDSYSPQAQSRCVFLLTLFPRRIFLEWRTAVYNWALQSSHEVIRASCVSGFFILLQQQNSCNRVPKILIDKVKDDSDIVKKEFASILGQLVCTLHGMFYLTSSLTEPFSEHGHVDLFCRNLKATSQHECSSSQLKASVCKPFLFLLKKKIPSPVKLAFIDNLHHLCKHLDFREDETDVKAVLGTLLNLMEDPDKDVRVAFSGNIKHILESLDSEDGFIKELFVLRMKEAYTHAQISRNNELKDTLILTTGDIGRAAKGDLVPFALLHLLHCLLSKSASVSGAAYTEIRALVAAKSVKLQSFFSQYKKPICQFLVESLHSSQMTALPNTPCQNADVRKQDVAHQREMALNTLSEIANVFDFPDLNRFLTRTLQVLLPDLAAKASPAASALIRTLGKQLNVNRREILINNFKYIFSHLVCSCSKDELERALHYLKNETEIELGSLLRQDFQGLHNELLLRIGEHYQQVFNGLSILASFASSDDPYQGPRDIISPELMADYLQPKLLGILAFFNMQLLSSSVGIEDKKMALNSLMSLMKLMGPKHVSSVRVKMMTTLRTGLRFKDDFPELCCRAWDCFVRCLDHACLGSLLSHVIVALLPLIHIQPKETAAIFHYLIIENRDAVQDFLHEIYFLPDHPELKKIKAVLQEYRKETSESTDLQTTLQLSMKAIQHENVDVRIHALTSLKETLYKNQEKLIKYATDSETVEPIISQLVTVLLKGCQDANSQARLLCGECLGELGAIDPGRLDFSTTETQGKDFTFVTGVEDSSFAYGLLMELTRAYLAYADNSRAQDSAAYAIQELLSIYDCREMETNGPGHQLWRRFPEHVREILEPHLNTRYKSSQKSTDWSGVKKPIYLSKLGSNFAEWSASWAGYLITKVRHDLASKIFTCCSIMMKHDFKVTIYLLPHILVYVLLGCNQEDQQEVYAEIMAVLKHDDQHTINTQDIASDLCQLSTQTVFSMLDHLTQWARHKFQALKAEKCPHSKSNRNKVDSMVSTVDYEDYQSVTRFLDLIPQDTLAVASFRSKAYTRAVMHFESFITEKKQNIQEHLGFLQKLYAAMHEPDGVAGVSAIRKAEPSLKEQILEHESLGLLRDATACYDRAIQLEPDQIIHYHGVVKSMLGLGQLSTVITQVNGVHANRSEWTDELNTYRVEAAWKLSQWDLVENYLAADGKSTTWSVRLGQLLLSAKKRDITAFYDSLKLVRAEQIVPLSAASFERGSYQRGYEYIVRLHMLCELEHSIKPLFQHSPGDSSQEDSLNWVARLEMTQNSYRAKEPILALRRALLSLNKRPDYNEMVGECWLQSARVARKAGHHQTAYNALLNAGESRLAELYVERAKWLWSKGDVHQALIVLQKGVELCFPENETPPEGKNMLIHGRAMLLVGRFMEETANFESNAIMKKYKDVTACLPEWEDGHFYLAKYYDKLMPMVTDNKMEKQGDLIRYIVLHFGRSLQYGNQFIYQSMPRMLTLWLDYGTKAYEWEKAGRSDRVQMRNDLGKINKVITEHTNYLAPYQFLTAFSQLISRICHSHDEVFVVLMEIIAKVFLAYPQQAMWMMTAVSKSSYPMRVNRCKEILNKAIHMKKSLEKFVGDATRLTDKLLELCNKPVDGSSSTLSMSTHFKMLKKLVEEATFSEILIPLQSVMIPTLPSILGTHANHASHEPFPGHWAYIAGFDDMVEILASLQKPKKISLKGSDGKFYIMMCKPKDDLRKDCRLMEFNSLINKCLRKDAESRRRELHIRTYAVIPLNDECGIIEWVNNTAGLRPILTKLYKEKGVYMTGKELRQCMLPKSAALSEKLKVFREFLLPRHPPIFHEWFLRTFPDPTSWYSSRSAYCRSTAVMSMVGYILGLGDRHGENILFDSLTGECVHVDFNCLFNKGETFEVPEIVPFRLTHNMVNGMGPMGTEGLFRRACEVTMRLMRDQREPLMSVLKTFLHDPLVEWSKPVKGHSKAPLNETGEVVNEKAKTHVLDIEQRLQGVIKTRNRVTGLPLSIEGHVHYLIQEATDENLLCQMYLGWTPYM

For orientation: IC50 means the concentration that inhibits the measured activity by half. Consider `C[C@@H]1COCCN1c1cc([C@]2(O)C[C@H]3CC[C@@H](C2)O3)c2cnn(-c3cc[nH]n3)c2n1` [CAMONSERTIB], for which the half-maximal inhibitory concentration (IC50) in data set [1] was 0.9 nM. In addition, the Activity entry is listed as “Toxic” in data set [2], “Non-Toxic” in data set [4], “Non-Toxic” in data set [5] and “Non-Toxic” in data set [6]. Further, the hepatocyte CLint at 1 µM in data set [3] was 11 µL/min/1e6 cells.
